Literature values, collected in US12465059B2, “Concentrated formic acid composition and its uses thereof” (priority 2018, dated 2025).

Assays:
[1] = versus Acetic Acid, the second best strongest straight chain Organic Acid
Rat = conditions: oral

SMILES	times stronger than Acetic Acid (acid strength) [1] [times]	LD 50 (Rat) [mg/kg]
O=CO [Methanoic acid]	10	
[Cl-].[Na+] [Sodium Chloride]		3000
